For data set [1], the target named is T1, Tyrosine-protein kinase JAK1 (Homo sapiens, UniProt P23458).
The target in data set [2] is T2, Tyrosine-protein kinase JAK3 (Homo sapiens, UniProt P52333).
T2 sequence (P52333 whole entry): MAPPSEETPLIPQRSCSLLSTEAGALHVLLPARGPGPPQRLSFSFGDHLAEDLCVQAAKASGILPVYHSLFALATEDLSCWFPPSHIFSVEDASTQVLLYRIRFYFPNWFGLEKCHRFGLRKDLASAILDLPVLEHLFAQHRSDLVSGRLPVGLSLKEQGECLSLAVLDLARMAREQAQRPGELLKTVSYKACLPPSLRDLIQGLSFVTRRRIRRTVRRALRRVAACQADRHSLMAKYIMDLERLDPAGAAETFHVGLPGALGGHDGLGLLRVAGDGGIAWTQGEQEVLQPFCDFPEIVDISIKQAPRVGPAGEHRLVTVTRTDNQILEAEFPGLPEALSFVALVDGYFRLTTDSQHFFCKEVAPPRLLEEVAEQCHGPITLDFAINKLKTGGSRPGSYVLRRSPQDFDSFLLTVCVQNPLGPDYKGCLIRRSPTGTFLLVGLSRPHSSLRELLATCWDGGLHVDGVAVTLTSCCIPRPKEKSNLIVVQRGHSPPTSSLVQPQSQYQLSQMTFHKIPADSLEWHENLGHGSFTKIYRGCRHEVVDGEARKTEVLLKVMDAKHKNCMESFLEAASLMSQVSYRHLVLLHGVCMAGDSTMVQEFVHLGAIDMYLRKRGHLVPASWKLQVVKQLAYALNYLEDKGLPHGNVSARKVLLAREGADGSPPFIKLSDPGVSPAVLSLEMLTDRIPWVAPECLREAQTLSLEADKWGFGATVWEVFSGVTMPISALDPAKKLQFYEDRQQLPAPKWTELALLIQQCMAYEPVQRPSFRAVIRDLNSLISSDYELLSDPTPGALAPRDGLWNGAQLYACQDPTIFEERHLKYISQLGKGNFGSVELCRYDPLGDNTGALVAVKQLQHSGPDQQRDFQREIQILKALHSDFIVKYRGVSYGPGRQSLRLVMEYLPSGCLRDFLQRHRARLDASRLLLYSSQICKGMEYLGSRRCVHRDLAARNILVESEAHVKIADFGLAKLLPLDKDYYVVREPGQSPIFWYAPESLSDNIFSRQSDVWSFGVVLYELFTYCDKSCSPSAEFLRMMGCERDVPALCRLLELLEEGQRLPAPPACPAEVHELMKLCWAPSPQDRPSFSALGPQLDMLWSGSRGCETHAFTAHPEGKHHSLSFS

In data set [3] the target is T1, Tyrosine-protein kinase JAK1. This is another data set of the same source.
Description: Binding affinity to JAK1 (unknown origin) by ligand displacement assay
The target in data set [4] is Non-receptor tyrosine-protein kinase TYK2 (Homo sapiens, UniProt P29597).
Description: Binding affinity to TYK2 (unknown origin) by ligand displacement assay

≈ marks a conversion by molar mass, not a printed value.

The values that follow come from ChEMBL document CHEMBL2375236, “Strategic use of conformational bias and structure based design to identify potent JAK3 inhibitors with improved selectivity against the JAK family and the kinome” (Bioorg Med Chem Lett, 2013).

Usually solubility stands for the dissolved amount per volume that the medium holds. Higher therefore signals much dissolved substance. In the data set “physchem”, `C[C@@H](NC(=O)c1c[nH]c2ncc(C3CC3)nc12)C(=O)N1CC(C#N)C1` came in with a solubility of 277 µg/mL (≈ 819 µM).

For orientation: IC50 means the concentration at which inhibition is half-maximal. The low end stands for inhibition by little substance, the high end for a need for much substance. With `COc1cc(-c2cnc3[nH]cc(C(=O)N[C@H](C)C(=O)N4CC(C#N)C4)c3n2)cc(OC)c1OC`, the 50% inhibitory concentration (IC50) in data set [1] was 7.4 nM.

In the data set “physchem”, `CCn1cc(-c2cnc3[nH]cc(C(=O)N[C@H](C)C(=O)N4CC(C#N)C4)c3n2)cn1` gave a solubility of 366 µg/mL (≈ 933 µM). Also, the IC50 in data set [2] was 5.2 nM; in data set [1], 23 nM.

In the data set “physchem”, `C[C@@H](NC(=O)c1c[nH]c2ncc(-c3cn(C)c4cc(Cl)ccc34)nc12)C(=O)N1CC(C#N)C1` displayed a solubility of less than 1 µg/mL. The same compound gave a 50% inhibitory concentration (IC50) in data set [1] of 1 nM.

As a reminder, the Kd is the equilibrium constant for the complex coming apart. Turning to `C[C@@H](NC(=O)c1c[nH]c2ncc(-c3nn(C)c4cc(Cl)ccc34)nc12)C(=O)N1CC(C#N)C1`, the solubility in “physchem” was less than 1 µg/mL. The compound also displayed an IC50 in data set [1] of 31 nM. The figures for the dissociation constant (Kd) in data set [3] and in data set [4] were 73 nM and 350 nM, respectively.

With `C[C@@H](NC(=O)c1c[nH]c2ncc(-c3nn(C)c4ccc(Cl)cc34)nc12)C(=O)N1CC(C#N)C1`, the half-inhibitory concentration (IC50) in data set [1] is 61 nM.

Turning to `C[C@@H](NC(=O)c1c[nH]c2ncc(-c3nn(C)c4ccccc34)nc12)C(=O)N1CC(C#N)C1`, the IC50 in data set [1] turned out to be 22 nM.

Compound `C[C@@H](NC(=O)c1c[nH]c2ncc(-c3nn(C)c4cc(F)ccc34)nc12)C(=O)N1CC(C#N)C1` returned a solubility in the data set “physchem” of less than 1 µg/mL. The compound also came in with a half-maximal inhibitory concentration (IC50) in data set [1] of 17 nM.

Take `C[C@@H](NC(=O)c1c[nH]c2ncc(-c3nn(C)c4cc(C#N)ccc34)nc12)C(=O)N1CC(C#N)C1`: the solubility in “physchem” is less than 1 µg/mL. In data set [1], this compound displayed an IC50 of 51 nM.

As for `COc1ccc2c(-c3cnc4[nH]cc(C(=O)N[C@H](C)C(=O)N5CC(C#N)C5)c4n3)nn(C)c2c1`, the solubility in “physchem” was less than 1 µg/mL. Moreover, in data set [1], the half-inhibitory concentration (IC50) was 38 nM.

For the compound `C[C@@H](NC(=O)c1c[nH]c2ncc(-c3nn(C)c4cc(C5CC5)ccc34)nc12)C(=O)N1CC(C#N)C1`, in data set [1], the IC50 turned out to be 10 nM.

For the compound `C[C@@H](NC(=O)c1c[nH]c2ncc(-c3nn(C)c4cc(C(C)(C)C)ccc34)nc12)C(=O)N1CC(C#N)C1`, half-maximal inhibition in data set [1] (IC50) required 12 nM.

Regarding `C[C@@H](NC(=O)c1c[nH]c2ncc(-c3nn(C)c4cc(Cl)cc(F)c34)nc12)C(=O)N1CC(C#N)C1`, in “physchem”, the solubility was less than 1 µg/mL.

`CC[C@@H](NC(=O)c1c[nH]c2ncc(-c3nn(C)c4cc(Cl)ccc34)nc12)C(=O)N1CC(C#N)C1` came in with a solubility in “physchem” of less than 1 µg/mL. In data set [1], this compound came in with an IC50 of 4.6 nM.

`Cn1nc(-c2cnc3[nH]cc(C(=O)N[C@@H](C(=O)N4CC(C#N)C4)C4CC4)c3n2)c2ccc(Cl)cc21` showed an IC50 in data set [1] of 0.8 nM.

Turning to `Cn1nc(-c2cnc3[nH]cc(C(=O)N[C@@H](C(=O)N4CC(C#N)C4)C(C)(C)C)c3n2)c2ccc(Cl)cc21`, half-maximal inhibition in data set [1] (IC50) required 5.5 nM.

For the compound `C[C@@H](NC(=O)c1c[nH]c2ncc(-n3ncc4cc(Cl)ccc43)nc12)C(=O)N1CC(C#N)C1`, the solubility in the data set “physchem” was less than 1 µg/mL. The compound also had an IC50 in data set [1] of 370 nM.

For the compound `C[C@@H](NC(=O)c1c[nH]c2ncc(-c3ncn4cc(F)ccc34)nc12)C(=O)N1CC(C#N)C1`, in the data set “physchem”, the solubility is 39 µg/mL (≈ 90.2 µM). Also, the concentration for half-maximal inhibition (IC50) in data set [1] is 16 nM.

With `C[C@@H](NC(=O)c1c[nH]c2ncc(-c3ncn4cc(F)cc(F)c34)nc12)C(=O)N1CC(C#N)C1`, the concentration in solution in the data set “physchem” (solubility) was 31 µg/mL (≈ 68.8 µM). Further, in data set [1], the IC50 worked out at 73 nM.

In the case of `C[C@@H](NC(=O)c1c[nH]c2ncc(-c3cnc4cc(Cl)ccn34)nc12)C(=O)N1CC(C#N)C1`, the IC50 in data set [1] turned out to be 61 nM.
